What was measured:
influenza varieties = settings: laboratory cells infected with influenza varieties; cited from earlier work
[1] = DPPH radical scavenging antioxidant assay; format: biochemical; settings: 0.125-0.50 mg/mL in ethanol, 30 min at RT, 517 nm; ranking among the three
Method: The reaction mixture was mixed thoroughly and left in the dark at RT for 30 min. The absorbance of the mixture was measured spectrophotometrically at 517 nm. Trolox was used as reference. Percentage DPPH radical scavenging activity was calculated by the following equation:
[formula] • Acs: Blank 1—Blank 2 • As: Absorbance of samples—Blank 2 Then % of inhibition was plotted against concentration.

[2] = 1 gram oral, chicken serum, 280 nm and 425 nm
Method: Three chickens (Rhode Island Red) that were each 2 years old weighing 5 pounds were selected, and 1 ml of blood was removed from the wing vein for baseline measurements. The blood was allowed to clot and the plasma was removed by centrifugation for subsequent baseline analysis. The chickens were allowed to rest overnight. The contents of each of the respective syringes were then administered to separate chickens via the mouth, ensuring that the contents were consumed. Blood was removed at 2, 4, and 24 hours from each bird and allowed to clot.

[3] = cited from earlier work

## COc1cc(/C=C/C(=O)CC(=O)/C=C/c2ccc(O)c(OC)c2)ccc1O [curcumin]
Influenza varieties
  reduction of viral replication: over 90%

## COc1cc(CCC(=O)CC(=O)CCc2ccc(O)c(OC)c2)ccc1O [tetrahydrocurcumin]
[1]
  antioxidant activity (DPPH radical scavenging, FIG. 16): higher antioxidant activity than curcumin but less than the tetrahydrocurcumin-Zn-curcumin
[2]
  HPLC peaks in serum at the 2-hour, 4-hour, and 24-hour timepoints: could be seen
[3]
  water solubility: not very water soluble
